Results taken from US11173151B2, “Substituted triazole derivatives and uses thereof” (BAYER AKTIENGESELLSCHAFT, priority 2017, dated 2021).
pIC50: −log10 of the molar value.

Assays:
human V1a receptor = molecular target: T1, human V1a receptor (Homo sapiens, UniProt P37288); assay: Cellular in vitro assay for determining vasopressin receptor activity, V1a receptor cell line (CHO, aequorin luminescence); format: cell-based; conditions: for pIC50: CHO cell line transfected with human V1a receptor, [Arg]-vasopressin at EC50 concentration, read-out: IC50 hV1a; for ratio IC50 hV2/hV1a: selectivity ratio IC50 hV2 / IC50 hV1a
T1 construct: expressed in transfected cells; host or cells: CHO K1 (ATCC), also stably transfected with a modified aequorin
How it was run: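 CHO K1/aequorin cells, coelenterazine 5 μg/ml o/n; cpd 10 min; [Arg]-vasopressin at EC50; luminescence read immediately; IC50.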

human V2 receptor = molecular target: T2, human V2 receptor (Homo sapiens, UniProt P30518); assay: Cellular in vitro assay for determining vasopressin receptor activity, V2 receptor cell line (CHO, CRE-luciferase); format: cell-based; conditions: CHO cell line transfected with human V2 receptor; [Arg8]-vasopressin at EC50 concentration, 3 hours; read-out: IC50 hV2
T2 construct: expressed in transfected cells; host or cells: CHO K1 (ATCC) expressing firefly luciferase under a CRE-responsive promoter
T2 sequence (P30518 whole entry): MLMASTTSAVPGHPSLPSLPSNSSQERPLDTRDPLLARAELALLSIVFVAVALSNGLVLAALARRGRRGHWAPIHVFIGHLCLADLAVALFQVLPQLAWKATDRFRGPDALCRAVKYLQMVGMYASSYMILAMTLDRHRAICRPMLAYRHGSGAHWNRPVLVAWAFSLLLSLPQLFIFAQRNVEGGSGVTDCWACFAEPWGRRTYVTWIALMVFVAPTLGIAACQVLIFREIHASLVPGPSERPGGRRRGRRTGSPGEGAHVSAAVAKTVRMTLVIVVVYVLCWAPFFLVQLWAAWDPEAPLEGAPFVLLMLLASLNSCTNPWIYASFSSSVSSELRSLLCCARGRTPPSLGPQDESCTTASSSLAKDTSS

T1 sequence (P37288 whole entry): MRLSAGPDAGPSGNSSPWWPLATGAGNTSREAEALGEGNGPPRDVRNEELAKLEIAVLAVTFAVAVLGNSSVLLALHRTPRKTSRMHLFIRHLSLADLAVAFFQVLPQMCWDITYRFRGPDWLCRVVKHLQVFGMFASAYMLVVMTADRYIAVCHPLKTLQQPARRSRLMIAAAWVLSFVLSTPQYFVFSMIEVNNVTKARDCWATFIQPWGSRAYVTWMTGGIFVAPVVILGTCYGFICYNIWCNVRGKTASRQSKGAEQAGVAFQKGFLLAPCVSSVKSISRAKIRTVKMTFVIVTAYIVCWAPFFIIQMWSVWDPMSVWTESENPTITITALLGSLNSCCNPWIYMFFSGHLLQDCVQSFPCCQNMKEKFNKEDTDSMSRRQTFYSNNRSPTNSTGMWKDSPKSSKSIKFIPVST

In the case of `Cc1nnc(NC(=O)c2ccccc2-n2cnc(Cn3nc(-c4ccc(Cl)cc4)n(C[C@H](O)C(F)(F)F)c3=O)n2)s1` [Example 238, 2-[3-({3-(4-Chlorophenyl)-5-oxo-4-[(2S)-3,3,3-trifluoro-2-hydroxypropyl]-4,5-dihydro-1H-1,2,4-triazol-1-yl}methyl)-1H-1,2,4-triazol-1-yl]-N-(5-methyl-1,3,4-thiadiazol-2-yl)benzamide], the pIC50 (human V1a receptor) was 7.87, the “ratio IC50 hV2/hV1a” value (human V1a receptor) was 3.3 and the pIC50 (human V2 receptor) was 7.35.

`O=C(NCc1ccc(F)c(F)c1)c1ccccc1-n1cnc(Cn2nc(-c3ccc(Cl)cc3)n(C[C@H](O)C(F)(F)F)c2=O)n1` [Example 239, 2-[3-({3-(4-Chlorophenyl)-5-oxo-4-[(2S)-3,3,3-trifluoro-2-hydroxypropyl]-4,5-dihydro-1H-1,2,4-triazol-1-yl}methyl)-1H-1,2,4-triazol-1-yl]-N-(3,4-difluorobenzyl)benzamide] was tested, and the pIC50 (human V1a receptor) was 8.13, the “ratio IC50 hV2/hV1a” value (human V1a receptor) was 32.7 and the pIC50 (human V2 receptor) was 6.62.

`Cc1ccnc(NC(=O)c2ccccc2-n2cnc(Cn3nc(-c4ccc(Cl)cc4)n(C[C@H](O)C(F)(F)F)c3=O)n2)n1` [Example 240, 2-[3-({3-(4-Chlorophenyl)-5-oxo-4-[(2S)-3,3,3-trifluoro-2-hydroxypropyl]-4,5-dihydro-1H-1,2,4-triazol-1-yl}methyl)-1H-1,2,4-triazol-1-yl]-N-(4-methylpyrimidin-2-yl)benzamide] was tested, and the pIC50 (human V1a receptor) was 7.90, the “ratio IC50 hV2/hV1a” value (human V1a receptor) was 24.0 and the pIC50 (human V2 receptor) was 6.52.

With `O=C(NCCF)c1ccccc1-n1cnc(Cn2nc(-c3ccc(Cl)cc3)n(C[C@H](O)C(F)(F)F)c2=O)n1` [Example 241, 2-[3-({3-(4-Chlorophenyl)-5-oxo-4-[(2S)-3,3,3-trifluoro-2-hydroxypropyl]-4,5-dihydro-1H-1,2,4-triazol-1-yl}methyl)-1H-1,2,4-triazol-1-yl]-N-(2-fluoroethyl)benzamide] the pIC50 (human V1a receptor) was 8.66, the “ratio IC50 hV2/hV1a” value (human V1a receptor) was 33.4 and the pIC50 (human V2 receptor) was 7.13.

With `O=C(NCc1c(F)cccc1F)c1ccccc1-n1cnc(Cn2nc(-c3ccc(Cl)cc3)n(C[C@H](O)C(F)(F)F)c2=O)n1` [Example 242, 2-[3-({3-(4-Chlorophenyl)-5-oxo-4-[(2S)-3,3,3-trifluoro-2-hydroxypropyl]-4,5-dihydro-1H-1,2,4-triazol-1-yl}methyl)-1H-1,2,4-triazol-1-yl]-N-(2,6-difluorobenzyl)benzamide] the pIC50 (human V1a receptor) was 8.24, the “ratio IC50 hV2/hV1a” value (human V1a receptor) was 22.2 and the pIC50 (human V2 receptor) was 6.90.

For `O=C(NCc1cc(F)cc(F)c1)c1ccccc1-n1cnc(Cn2nc(-c3ccc(Cl)cc3)n(C[C@H](O)C(F)(F)F)c2=O)n1` [Example 243, 2-[3-({3-(4-Chlorophenyl)-5-oxo-4-[(2S)-3,3,3-trifluoro-2-hydroxypropyl]-4,5-dihydro-1H-1,2,4-triazol-1-yl}methyl)-1H-1,2,4-triazol-1-yl]-N-(3,5-difluorobenzyl)benzamide], the pIC50 (human V1a receptor) was 7.65, the “ratio IC50 hV2/hV1a” value (human V1a receptor) was 24.0 and the pIC50 (human V2 receptor) was 6.27.

With `Cc1noc(NC(=O)c2ccccc2-n2cnc(Cn3nc(-c4ccc(Cl)cc4)n(C[C@H](O)C(F)(F)F)c3=O)n2)c1C` [Example 244, 2-[3-({3-(4-Chlorophenyl)-5-oxo-4-[(2S)-3,3,3-trifluoro-2-hydroxypropyl]-4,5-dihydro-1H-1,2,4-triazol-1-yl}methyl)-1H-1,2,4-triazol-1-yl]-N-(3,4-dimethyl-1,2-oxazol-5-yl)benzamide] the pIC50 (human V1a receptor) was 8.14, the “ratio IC50 hV2/hV1a” value (human V1a receptor) was 31.5 and the pIC50 (human V2 receptor) was 6.64.

`CC(C)=CCNC(=O)c1ccccc1-n1cnc(Cn2nc(-c3ccc(Cl)cc3)n(C[C@H](O)C(F)(F)F)c2=O)n1` [Example 245, 2-[3-({3-(4-Chlorophenyl)-5-oxo-4-[(2S)-3,3,3-trifluoro-2-hydroxypropyl]-4,5-dihydro-1H-1,2,4-triazol-1-yl}methyl)-1H-1,2,4-triazol-1-yl]-N-(3-methylbut-2-en-1-yl)benzamide] was tested, and the pIC50 (human V1a receptor) was 8.19, the “ratio IC50 hV2/hV1a” value (human V1a receptor) was 125.6 and the pIC50 (human V2 receptor) was 6.09.

With `O=C(N[C@H]1CC[C@H](O)CC1)c1ccccc1-n1cnc(Cn2nc(-c3ccc(Cl)cc3)n(C[C@H](O)C(F)(F)F)c2=O)n1` [Example 246, 2-[3-({3-(4-Chlorophenyl)-5-oxo-4-[(2S)-3,3,3-trifluoro-2-hydroxypropyl]-4,5-dihydro-1H-1,2,4-triazol-1-yl}methyl)-1H-1,2,4-triazol-1-yl]-N-(trans-4-hydroxycyclohexyl)benzamide] the pIC50 (human V1a receptor) was 8.34, the “ratio IC50 hV2/hV1a” value (human V1a receptor) was 263.7 and the pIC50 (human V2 receptor) was 5.92.

With `O=C(Nc1ccccc1O)c1ccccc1-n1cnc(Cn2nc(-c3ccc(Cl)cc3)n(C[C@H](O)C(F)(F)F)c2=O)n1` [Example 247, 2-[3-({3-(4-Chlorophenyl)-5-oxo-4-[(2S)-3,3,3-trifluoro-2-hydroxypropyl]-4,5-dihydro-1H-1,2,4-triazol-1-yl}methyl)-1H-1,2,4-triazol-1-yl]-N-(2-hydroxyphenyl)benzamide] the pIC50 (human V1a receptor) was 8.62, the “ratio IC50 hV2/hV1a” value (human V1a receptor) was 4.4 and the pIC50 (human V2 receptor) was 7.98.

For `O=C(Nc1cccnc1)c1ccccc1-n1cnc(Cn2nc(-c3ccc(Cl)cc3)n(C[C@H](O)C(F)(F)F)c2=O)n1` [Example 248, 2-[3-({3-(4-Chlorophenyl)-5-oxo-4-[(2S)-3,3,3-trifluoro-2-hydroxypropyl]-4,5-dihydro-1H-1,2,4-triazol-1-yl}methyl)-1H-1,2,4-triazol-1-yl]-N-(pyridin-3-yl)benzamide], the pIC50 (human V1a receptor) was 8.92, the “ratio IC50 hV2/hV1a” value (human V1a receptor) was 54.2 and the pIC50 (human V2 receptor) was 7.19.

For `Cc1ccc(NC(=O)c2ccccc2-n2cnc(Cn3nc(-c4ccc(Cl)cc4)n(C[C@H](O)C(F)(F)F)c3=O)n2)cn1` [Example 249, 2-[3-({3-(4-Chlorophenyl)-5-oxo-4-[(2S)-3,3,3-trifluoro-2-hydroxypropyl]-4,5-dihydro-1H-1,2,4-triazol-1-yl}methyl)-1H-1,2,4-triazol-1-yl]-N-(6-methylpyridin-3-yl)benzamide], the pIC50 (human V1a receptor) was 8.55, the “ratio IC50 hV2/hV1a” value (human V1a receptor) was 48.6 and the pIC50 (human V2 receptor) was 6.87.

With `Cc1cc(NC(=O)c2ccccc2-n2cnc(Cn3nc(-c4ccc(Cl)cc4)n(C[C@H](O)C(F)(F)F)c3=O)n2)cnc1F` [Example 250, 2-[3-({3-(4-Chlorophenyl)-5-oxo-4-[(2S)-3,3,3-trifluoro-2-hydroxypropyl]-4,5-dihydro-1H-1,2,4-triazol-1-yl}methyl)-1H-1,2,4-triazol-1-yl]-N-(6-fluoro-5-methylpyridin-3-yl)benzamide] the pIC50 (human V1a receptor) was 8.35, the “ratio IC50 hV2/hV1a” value (human V1a receptor) was 19.6 and the pIC50 (human V2 receptor) was 7.06.

With `O=C(Nc1nncs1)c1ccccc1-n1cnc(Cn2nc(-c3ccc(Cl)cc3)n(C[C@H](O)C(F)(F)F)c2=O)n1` [Example 251, 2-[3-({3-(4-Chlorophenyl)-5-oxo-4-[(2S)-3,3,3-trifluoro-2-hydroxypropyl]-4,5-dihydro-1H-1,2,4-triazol-1-yl}methyl)-1H-1,2,4-triazol-1-yl]-N-(1,3,4-thiadiazol-2-yl)benzamide] the pIC50 (human V1a receptor) was 8.05, the “ratio IC50 hV2/hV1a” value (human V1a receptor) was 9.2 and the pIC50 (human V2 receptor) was 7.09.

In the case of `N#CCNC(=O)c1ccccc1-n1cnc(Cn2nc(-c3ccc(Cl)cc3)n(C[C@H](O)C(F)(F)F)c2=O)n1` [Example 252, 2-[3-({3-(4-Chlorophenyl)-5-oxo-4-[(2S)-3,3,3-trifluoro-2-hydroxypropyl]-4,5-dihydro-1H-1,2,4-triazol-1-yl}methyl)-1H-1,2,4-triazol-1-yl]-N-(cyanomethyl)benzamide], the pIC50 (human V1a receptor) was 8.12, the “ratio IC50 hV2/hV1a” value (human V1a receptor) was 33.6 and the pIC50 (human V2 receptor) was 6.59.
